Experimental data from PMC8954792 (Viruses, 2022).

What was measured:
[1] = system: pseudotyped SARS-CoV-2 Omicron (B.1.1.529); experiment: microbe, parasite or virus in culture; assay type: cell-based; conditions: Severe acute respiratory syndrome coronavirus 2, Caco-2
[2] = system: pseudotyped SARS-CoV-2 Gamma (P.1); experiment: microbe, parasite or virus in culture; assay type: cell-based; conditions: Severe acute respiratory syndrome coronavirus 2, Caco-2
[3] = system: cell-free SARS-CoV PsV; experiment: microbe, parasite or virus in culture; conditions: Severe acute respiratory syndrome coronavirus
[4] = in vitro; conditions: dog
[5] = system: cell-free MERS-CoV PsV; experiment: microbe, parasite or virus in culture; conditions: Middle East respiratory syndrome-related coronavirus, Huh-7
[6] = system: SARS-CoV-2 PsV; experiment: microbe, parasite or virus in culture; assay type: cell-based; conditions: Severe acute respiratory syndrome coronavirus 2
[7] = system: H5N1 PsV; experiment: microbe, parasite or virus in culture; assay type: cell-based, influenza virus; conditions: Influenza A virus, H5N1, MDCK, read-out: IC50 H5N1
[8] = system: pseudotyped SARS-CoV-2 Alpha (B.1.1.7); experiment: microbe, parasite or virus in culture; assay type: cell-based; conditions: Severe acute respiratory syndrome coronavirus 2, Caco-2
[9] = system: cell-free SARS-CoV-2 PsV; experiment: Inactivation of cell-free SARS-CoV-2 PsV; assay type: cell-based; conditions: Severe acute respiratory syndrome coronavirus 2
[10] = system: SARS-CoV PsV; experiment: microbe, parasite or virus in culture; conditions: Severe acute respiratory syndrome coronavirus
[11] = system: authentic SARS-CoV-2 WT (nCoV-SH01); experiment: microbe, parasite or virus in culture; assay type: cell-based; conditions: Severe acute respiratory syndrome coronavirus 2, Vero C1008
[12] = system: SARS-CoV PsV
[13] = system: H7N9 PsV; experiment: microbe, parasite or virus in culture; assay type: cell-based, influenza virus; conditions: Influenza A virus, H7N9, MDCK, read-out: IC50 H7N9
[14] = system: MERS-CoV PsV; experiment: microbe, parasite or virus in culture; conditions: Middle East respiratory syndrome-related coronavirus, Huh-7
[15] = Cytotoxicity (CCK-8) on Huh-7 cells; conditions: human
[16] = system: cell-free SARS-CoV PsV
[17] = system: MERS-CoV PsV
[18] = system: pseudotyped SARS-CoV-2 Beta (B.1.351); experiment: microbe, parasite or virus in culture; assay type: cell-based; conditions: Severe acute respiratory syndrome coronavirus 2, Caco-2
[19] = Cytotoxicity (CCK-8) on hACE2-293T cells; conditions: human
[20] = system: EBOV (Sudan); experiment: microbe, parasite or virus in culture; assay type: cell-based, Ebola virus; conditions: Zaire ebolavirus, Huh-7
[21] = system: authentic ZIKV PRVABC59 (2015/Puerto Rico); experiment: microbe, parasite or virus in culture; assay type: cell-based; conditions: Zika virus, Vero C1008
[22] = system: EBOV (Zaire); experiment: microbe, parasite or virus in culture; assay type: cell-based, Ebola virus; conditions: Zaire ebolavirus, Huh-7
[23] = system: NiV; experiment: microbe, parasite or virus in culture; assay type: cell-based, Nipah virus; conditions: Henipavirus nipahense, U-87 MG
[24] = system: Vero E6 cells; assay type: cell-based
[25] = system: VSV PsV; experiment: microbe, parasite or virus in culture; assay type: cell-based, vesicular stomatitis virus; conditions: Vesicular stomatitis virus, Huh-7
[26] = system: SARS-CoV-2 PsV; assay type: cell-based
[27] = molecular target: HIV-1 6-HB (Human immunodeficiency virus type 1, UniProt P04578); experiment: Inhibition of HIV-1 6-HB formation (ELISA); assay type: biochemical; conditions: HIV-1 6-HB formation measured by ELISA
[28] = system: cell-free MERS-CoV PsV
[29] = system: authentic HCoV-OC43; experiment: CPE reduction assay, authentic HCoV-OC43; assay type: cell-based; conditions: Betacoronavirus 1; HCoV-OC43 infection, RD cells, CCK-8
[30] = system: authentic EV71; experiment: CPE reduction assay, authentic EV71; assay type: cell-based, human enterovirus 71 virus; conditions: RD cells
[31] = system: LASV; experiment: organism not typed; assay type: cell-based, Lassa fever virus; conditions: Huh-7
[32] = system: HPV PsV; assay type: cell-based, human papilloma virus

Sequence of HIV-1 6-HB (P04578 536-581, added parts left off): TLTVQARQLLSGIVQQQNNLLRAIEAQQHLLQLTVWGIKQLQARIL
Sequence of HIV-1 6-HB (P04578 536-581, added parts left off): as above

SMILES | IC50 [1] | IC50 [2] | EC50 [3] | CC50 [4] | EC50 [5] | IC50 [6] | IC50 [7] | IC50 [8] | EC50 [9] | IC50 [10] | IC50 [11] | SI CC50/IC50 [12] | IC50 [13] | IC50 [14] | CC50 at 48 h [15] | SI CC50/EC50 [16] | SI CC50/IC50 [17] | IC50 [18] | CC50 at 48 h [19] | inhibition of SARS-CoV-2 PsV infection after unbound compound washed from cells [26] | further results
O=C(O)c1cc(-c2ccc(/C=C3\SC(=S)N(CCc4ccc(OCc5ccc(F)cc5)cc4)C3=O)o2)ccc1Cl [FD010] | 2880 nM | 870 nM | 190 ± 30 nM | > 50000 nM | 40 ± 10 nM | 360 nM | 970 ± 210 nM | 1040 nM | 90 nM | 290 ± 30 nM | 40 nM | 70.41 | 5880 ± 610 nM | 120 ± 10 nM | 44700 ± 1260 nM | 107.47 | 372.25 | 1550 nM | 20400 ± 1000 nM |  | 
O=C(O)c1cc(-c2ccc(/C=C3\SC(=S)N(CCc4ccc(OCC5CC5)cc4)C3=O)o2)ccc1Cl [FD012] | 770 nM | 250 nM | 120 ± 10 nM | 41700 nM | 50 ± 10 nM | 30 nM | 150 ± 10 nM | 350 nM | 40 nM | 20 ± 10 nM | 410 nM |  | 230 ± 20 nM | 110 ± 10 nM | 18600 ± 350 nM | 102.50 | 169.27 | 270 nM | 12300 ± 340 nM | not effective in inhibiting viral infection after washing | IC50 [20]: 190 ± 20 nM; IC50 [21]: 910 nM; IC50 [22]: 90 ± 20 nM; IC50 [23]: 70 ± 10 nM; fluorescence intensity of treated cells (binding to cells) [24]: positively correlated with compound concentration; IC50 [25]: 5 nM; IC50 [27]: 50100 nM; SI CC50/EC50 [28]: 372.40; IC50 [29]: 110 nM; inhibitory activity relative to FD001 [12]: ~10 fold; inhibition of infection of authentic EV71 [30]: could not inhibit; IC50 [31]: 320 ± 40 nM; inhibition of infection of nonenveloped HPV PsV [32]: could not inhibit
O=C(O)c1cc(-c2ccc(/C=C3\SC(=S)N(CCc4ccc(OCc5ccsc5)cc4)C3=O)o2)ccc1Cl [FD013] | 980 nM | 410 nM | 100 ± 10 nM | > 50000 nM | 30 ± 10 nM | 120 nM | 260 ± 20 nM | 400 nM | 70 nM | 50 ± 10 nM | 30 nM | 372.40 | 3540 ± 890 nM | 50 ± 10 nM | 30900 ± 630 nM | 186.20 | 618.00 | 310 nM | 18600 ± 230 nM | not effective in inhibiting viral infection after washing | 
CCC(CC)COC(=O)[C@H](C)N[P@](=O)(OC[C@H]1O[C@@](C#N)(c2ccc3c(N)ncnn23)[C@H](O)[C@@H]1O)Oc1ccccc1 [Remdesivir, remdesivir, reference compound] |  |  |  |  |  |  |  |  |  |  | 1090 nM |  |  |  |  |  |  |  |  |  | 
